Experimental data published in US9642922B2, “Caspase-triggered nano-aggregation probes and methods of use” (The Board of Trustees of the Leland Stanford Junior …, priority 2013, dated 2017).
Numbered stars: 1 amine (or outer) side, 2 acyl side, 3 side chain; on linkers, the order of the positions; unused ones are H or OH. Square brackets hold non-standard residues; d marks the D form. Peptide text beside a SMILES is read from it. * marks the point of attachment. DOTA = O=C(O)CN1CCN(CC(=O)O)CCN(CC(=O)*)CCN(CC(=O)O)CC1; X1 = O=C(C1CSC(c2nc3ccc(N[*:1])cc3s2)=N1)[*:2]; X2 = N#Cc1ccc2cc(OCCCN*)ccc2n1; SEt = CCS*

Legend:
[1] = test system: subcutaneous HeLa tumors; test: In vivo fluorescence imaging of DOX-treated HeLa tumor-bearing mice; parameters: species or system mouse
Experimental: C-SNAF or either of the control probes (5 nmol) was administered intravenously to tumor-bearing mice and whole animal fluorescence was longitudinally monitored using a Maestro fluorescence imager.
To establish tumors in 6-week-old female nu/nu mice, 2×10^6 HeLa cells suspended in 50 μL of a 50% v/v mixture of Matrigel in supplemented DMEM (10% FBS, 1% penstrep) were injected subcutaneously in the shoulders of the mouse. Tumors were grown until a single aspect was 0.7 to 0.9 cm (approximately 10-15 days), and then treatment consisting of 8 mg/kg DOX or saline was initiated. Treatments were administered intravenously once every 4 d for a total of three times. Total mouse body weight and tumor size (width and length by caliper) was measured every other day. Tumor volumes were calculated assuming ellipsoid shape with the formula (l×w^2)/2.
Two days following the final treatment, 5 nmol probe in saline was injected intravenously and fluorescence imaging began immediately on a Maestro hyperspectral fluorescent imaging system (PerkinElmer, Mass., USA) using a 635±25 nm excitation filter and a 675 nm long-pass emission filter, with images acquired from 670 to 900 nm. Tissue autofluorescence and Cy5.5 fluorescence were deconvolved, and tumor fluorescence intensity was quantified by region of interest measurement using Nuance v.3.0.1.2 software (Perkin Elmer, Mass., USA).

[2] = biological target: T1, recombinant human caspase-7 (Homo sapiens, UniProt P55210); test: HPLC enzyme specificity assay of C-SNAF, caspase-7; type: biochemical; conditions: 25 μM probe, 0.735 μg/ml enzyme
T1 construct: purchased Calbiochem; host or cells: E. coli
Experimental: The specificity of C-SNAF towards other representative cysteine proteases such as caspase-7, caspase-9, cathepsin B, and legumain was examined.
(§1) Caspase (human, recombinant from E. coli) assays were performed for caspase-3 (4.9×10^−3 U; 7.35×10^−4 mg, Sigma), −7 (18.3 U; 7.35×10^−4 mg, Calbiochem), and −9 (0.3 U; 7.35×10^−4 mg, Calbiochem). All caspase assays were conducted in caspase buffer with 50 mM HEPES, 100 mM NaCl, 1 mM EDTA, 10 mM TCEP, 10% glycerol, and 0.1% CHAPS at pH 7.4. Cathepsin B (human liver; 0.27 U; 7.35×10^−4 mg, Calbiochem) and Legumain (human, recombinant from mouse myeloma cell line; >250 pmol/min/μg; 7.35×10^−4 mg, R&D Systems) were conducted in reaction buffer with 50 mM sodium acetate, 50 mM NaCl, 0.5 mM EDTA and 10 mM TCEP at pH 5.5. C-SNAF was diluted in the respective enzyme reaction buffer (25 μM, 1 mL) and remained at room temperature for 10 min, to which was then added the respective enzymes. Reactions were performed at 37° C., and monitored by HPLC hourly. The percentage conversion of the reaction was calculated based on the percentage of peak area of C-SNAF-cycl in the HPLC trace at 675 nm UV detection, which indicated the efficacy of enzyme cleavage of C-SNAF.

[3] = biological target: T2, caspase-3 (Homo sapiens, UniProt P42574); test: HPLC assay of caspase-3-triggered macrocyclization of C-SNAF; type: biochemical; parameters: purchased Sigma; host or cells: E. coli; conditions: probe 25 μM, caspase-3, 6 h
T2 sequence (P42574 29-175 limits assumed): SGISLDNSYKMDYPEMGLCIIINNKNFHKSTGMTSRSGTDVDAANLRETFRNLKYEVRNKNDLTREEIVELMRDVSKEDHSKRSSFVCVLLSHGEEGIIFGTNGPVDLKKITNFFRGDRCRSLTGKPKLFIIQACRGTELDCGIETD
T2 sequence (P42574 176-277 limits assumed): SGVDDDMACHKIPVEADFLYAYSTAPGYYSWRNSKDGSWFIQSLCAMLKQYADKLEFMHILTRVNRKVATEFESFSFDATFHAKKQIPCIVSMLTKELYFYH
Experimental: The progression of caspase-3-triggered macrocyclization of C-SNAF to form C-SNAF-cycl in solution was monitored using high-performance liquid chromatography (HPLC) following incubation of the probe (25 μM) with recombinant human caspase-3 (4.9×10^−[…]).
as §1

[4] = test system: STS-induced apoptotic HeLa cells; test: Flow cytometry of STS-induced apoptotic HeLa cells labeled with probes; type: cell-based, human
Experimental: Approximately 10^5 HeLa cells in 1 mL DMEM medium were seeded onto 12-well plates. […] For the inhibitor blocking experiment, the STS-treated cells were first incubated with the caspase inhibitor Z-VAD-fmk (50 μM, R&D Systems) for 30 min, and then 2 μM C-SNAF was added. All cells incubations were 24 h, followed by staining with FLICA (FAM) after trypsinization. After washing with PBS (1×) three times, the cell pellets were resuspended in 300 μL PBS and applied for flow cytometry analysis using the FITC and Cy5.5 channels. The cell number for each flow cytometry analysis was approximately 5000 to 10000, and the data was processed using FlowJo software.

[5] = biological target: T2, caspase-3; test: T1 measurement of probe 15 with caspase-3; type: biochemical; parameters: purchased Sigma; host or cells: E. coli; conditions: probe 200 μM
Experimental: (§2) The enzyme specificity of probe 15 was studied by measuring the T1 value resulting from probe incubation (208 μM) with any of five relevant subcellular proteases (caspase-3, -7, -9, cathepsin B and legumain) in enzyme buffer. […] The reduced T1 value in solution was inhibited by the caspase inhibitor Z-VAD-fmk (50 μM).
(§3) Caspase (human, recombinant from E. coli) assays were performed for caspase-3 (4.9×10^−3 U; 7.35×10^−4 mg, Sigma), −7 (18.3 U; 7.35×10^−4 mg, Calbiochem), and −9 (0.3 U; 7.35×10^−4 mg, Calbiochem). All caspase assays were conducted in caspase buffer with 50 mM HEPES, 100 mM NaCl, 1 mM EDTA, 10 mM TCEP, 10% glycerol, and 0.1% CHAPS at pH 7.4.

[6] = biological target: T3, caspase-9 (Homo sapiens, UniProt P55211); test: T1 measurement of probe 15 with caspase-9; type: biochemical; conditions: probe 208 μM, protease 50 nM, 1 T
T3 construct: purchased Calbiochem; host or cells: E. coli
Experimental: as §2, §3

[7] = test system: viable HeLa cells; test: Cell viability study (trypan blue); type: cell-based, human; conditions: 250 μM for 24 h
Experimental: About 2×10^5 HeLa cells in 1 mL DMEM medium were seeded onto 12-well plates. […] After 24 h incubation, the medium was removed, and the cells were trypsinized. The cell number was counted using trypan blue assay. The viability of cell with blank medium was set as 100%, and cells incubating with 1 or Dotarem were normalized to that in blank medium.

T1 sequence (P55210 24-198 limits assumed): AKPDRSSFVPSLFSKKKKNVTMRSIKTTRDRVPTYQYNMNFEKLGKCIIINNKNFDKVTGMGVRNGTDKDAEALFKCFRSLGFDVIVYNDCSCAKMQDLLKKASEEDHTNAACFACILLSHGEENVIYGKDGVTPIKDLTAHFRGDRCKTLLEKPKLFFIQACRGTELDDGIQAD
T1 sequence (P55210 207-303 limits assumed): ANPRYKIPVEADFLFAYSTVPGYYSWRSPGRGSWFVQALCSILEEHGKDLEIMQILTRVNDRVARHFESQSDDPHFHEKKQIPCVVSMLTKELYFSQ
T3 sequence (P55211 1-315 limits assumed): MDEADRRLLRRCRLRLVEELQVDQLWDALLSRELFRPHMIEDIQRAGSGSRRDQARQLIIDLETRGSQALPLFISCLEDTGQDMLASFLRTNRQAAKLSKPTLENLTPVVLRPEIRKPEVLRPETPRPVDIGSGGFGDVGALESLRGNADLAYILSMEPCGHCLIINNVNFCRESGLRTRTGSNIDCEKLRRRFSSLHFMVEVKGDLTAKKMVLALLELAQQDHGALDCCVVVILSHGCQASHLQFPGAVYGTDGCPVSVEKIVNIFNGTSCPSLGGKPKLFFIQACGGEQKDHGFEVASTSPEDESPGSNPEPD

Compound	time of maximum tumor fluorescence after administration ([1]; 5 nmol i.v.)	correlation (r) of maximum tumor fluorescence with maximum tumor size change ([1]; 3×DOX-treated mice, 1 h after probe)	increase in fluorescence signal in DOX-treated tumors compared to saline-treated ([1]; 4 h after 5 nmol probe, 3×DOX)	selectivity of activation by caspase-7 [2]	conversion to C-SNAF-cycl after 6 h [3]	labeling of FLICA-positive apoptotic cells ([4]; 2 μM probe, STS-induced apoptotic HeLa)	increase in Cy5.5 fluorescence of apoptotic relative to viable cells ([4]; 2 μM probe, STS-treated HeLa, flow cytometry)	effect of caspase inhibitor Z-VAD-fmk on the increased fluorescence ([4]; Z-VAD-fmk 50 μM)	lowest caspase-3 concentration detected by T1 value measurements [5]	T1 value after incubation with caspase-9 [6]	cytotoxicity, effect on cell viability [7]
CCSSC[C@@H](NC(=O)[C@H](CC(=O)O)NC(=O)[C@@H](NC(=O)[C@H](CCC(=O)O)NC(=O)[C@H](CC(=O)O)NC(C)=O)C(C)C)C(=O)N[C@@H](CCCCNC(=O)CCCCCN1C(=CC=CC=CC2=[N+](CC)c3ccc4c(S(=O)(=O)[O-])cc(S(=O)(=O)O)cc4c3C2(C)C)C(C)(C)c2c1ccc1c(S(=O)(=O)O)cc(S(=O)(=O)O)cc21)C(=O)Nc1ccc2nc(C3=N[C@@H](C(=O)NCCCOc4ccc5nc(C#N)ccc5c4)CS3)sc2c1 [C-SNAF]	1 h	−0.9	1.6 fold	high selectivity of the probe toward effector caspases-3 and -7	almost completely converted to C-SNAF-cycl	efficiently labeled	~13 fold	inhibited by Z-VAD-fmk			
CCSSCC(NC(=O)C(CC(=O)O)NC(=O)C(NC(=O)C(CCC(=O)O)NC(=O)C(CC(=O)O)NC(C)=O)C(C)C)C(=O)NC(CCCCNC(=O)CN1CCN(CC(=O)[O-])CCN(CC(=O)[O-])CCN(CC(=O)[O-])CC1)C(=O)Nc1ccc2nc(C3=NC(C(=O)NCCCOc4ccc5nc(C#N)ccc5c4)CS3)sc2c1.[Gd+3] (centres unmarked) [probe 15] (Ac-DEVDC(SEt)K(DOTA)[X1]-X2; configuration not given here)									5 nM	No reduced T1 value	no adverse effects on cell viability
